Experimental data reported in the NIST ThermoML archive (doi:10.1021/je400544h).
Numbers after ± are expanded uncertainties.

Conditions: Liquid, Ebulliometric method (Recirculating still)

FC(F)(F)C(Cl)(Cl)Cl [1,1,1-trichloro-2,2,2-trifluoroethane]
vapor or sublimation pressure (319.15 K): 101.3 ± 2 kPa

CC(C)=O [acetone]
vapor or sublimation pressure (329.37 K): 101.3 ± 1.8 kPa

CCO [ethanol]
vapor or sublimation pressure (351.45 K): 101.3 ± 1.8 kPa

O=S(=O)(Cl)Cl [sulfuryl chloride]
vapor or sublimation pressure (342.6 K): 101.3 ± 2 kPa
